Laboratory results taken from US5043354A, “Pharmaceutically useful 5-hydroxy-2,3-dihydro-benzofurans and 5-hydroxy-benzofurans” (Fujisawa Pharmaceutical Co., Ltd., priority 1989, dated 1991).
pIC50: −log10 of the molar value.

Key:
[1] = target: xanthine oxidase-hypoxanthine (XO/HX) reaction; experiment: Inhibitory effect on luminol-induced chemiluminescence (CL) which results from xanthine oxidase-hypoxanthine (XO/HX) reaction; format: biochemical, cow; settings: 37° C, peak intensity, sample in dimethylsulfoxide
Procedure: Inhibitory effect on luminol-induced chemiluminescence (CL) which results from xanthine oxidase-hypoxanthine (XO/HX) reaction.
Four hundred and fifty micro liter of […] hypoxanthine (Kohjin Co., Ltd.) in 0.lM phosphate buffer solution (PBS)(pH 7.6), 10 μl of 1 mg/ml luminol (Nakarai Chemicals, Ltd.) in PBS and 10 μl of sample dissolved in dimethylsulfoxide were mixed in a round-bottomed vial, and preincubated for 3 min. at 37° C. And then, 50 μl of 0.05 unit/ml xanthine oxidase in 0.lM phosphate buffer solution (from cow milk, Boehringer Mannhein GmbH) was added. For the measurement of CL, a Biolumat (LB 9505, Berthold, FRG) was used. The vial containing XO/HX reaction mixture was placed into a Biolumat chamber at 37° C, and CL was continuously monitored using a computer (PC 9801 VM, NEC). Peak intensity was used as an index of CL.

[2] = test system: rat brain homogenate; experiment: Inhibitory effect on iron-dependent lipid peroxidation of rat brain homogenate (TBA-reactive products); format: biochemical, rat (male Sprague-Dawley); settings: 37° C, 20 min
Procedure: Inhibitory effect on iron-dependent lipid peroxidation of rat brain homogenate
Method : (reported by J. M. Braughler et al.^1))
After decapitation,the brain was quickly removed (minus cerebellum), weighed, and placed in ice-cold Krebs buffer solution. The brain was homogenized in a ratio of 1 g of wet tissue to 9 ml of buffer in a teflon homogenizer. Homogenates were used immediately in lipid p-roxidation assays as follows.
* HEPES : N-(2-hydroxyethyl)piperazine-N'-2-ethanesulfonic acid (Sigma)
To the reaction mixture consisted of 50 μl of 6.25 mg/ml brain homogenate in Krebs buffer solution, 110 μl of Krebs buffer solution, 20 μl of sample dissolved in methanol was added 20 μl of aqueous 2 mM Fe(NH4)2 (SO4)2 solution, which was prepared freshly, at 37° C. After 20 min, the reaction was terminated by the addition of 30 μl of 35% perchloric acid. Then 20 μl of 500 μM desferoxamine mesylate (Sigma) in Krebs buffer solution was added to the reaction mixture to prevent further lipid peroxydation. After centrifugation at 2000 xg, 10 min, 4° C., 50 μl of supernatant was subsequently assayed for lipid peroxide.
Lipid peroxide was assessed as TBA-reactive product as described by H. Ohkawa et al ^2). The reaction mixture consisted of 50 μl of above-mentioned supernatant, 100 μl of aqueous 8.1% sodium dodecyl sulfate (SDS) solution, 750 μl of aqueous 20% acetic acid solution which was adjusted with aqueous lN NaOH solution to pH 3.5, 750 μl of aqueous 0.67% 2-thiobarbituric acid solution and 350 μl of distilled water was boiled for 1 hour and cooled in ice bath rapidly. 0.5 ml of distilled water and 2.5 ml of the mixture of n-butanol and pyridine (15:1, V/V) were added, and the mixture was shaken vigorously. After centrifugation at 1250 xg for 10 min, the fluorescence (excitation; 515 nm, emission; […]) of the organic layer was determined.

[3] = Solubility; format: physicochemical

SMILES | pIC50 [1] | Inhibition of TBA-reactive products generation ([2]; concentration 10^-4 M) | Inhibition of TBA-reactive products generation ([2]; concentration 10^-5 M) | Inhibition of TBA-reactive products generation ([2]; concentration 10^-6 M) | Inhibition of TBA-reactive products generation ([2]; concentration 10^-7 M) | Solubility ([3]; chloroform, diethyl ether, ethyl acetate, acetone, methanol and ethanol) | Solubility ([3]; hexane, water)
COc1cc2c(cc1O)CC(C(C)(C)O)O2 (racemic) [Example 1, 2,3-dihydro-2-(1-hydroxy-1-methylethyl)-6-methoxy-5-benzofuranol] | 6.42 | – | – | – | – | – | –
COc1cc2oc(C(C)C)cc2cc1O [Example 2, 5-hydroxy-6-methoxy-2-(1-methylethyl)benzofuran] | 8.33 | – | – | – | – | – | –
Cc1c(C)c2c(c(C)c1O)CCC(C)(CCCC(C)CCCC(C)CCCC(C)C)O2 (stereo not drawn) [α-Tocopherol, reference compound] | – | 65.3% | 25.7% | 9.3% | 0% | – | –
COc1cc2c(cc1O)CC(C(C)(C)O)O2 (stereo not shown) [Example 3, 2,3-Dihydro-2-(1-hydroxy-1-methylethyl)-6-methoxy-5-benzofuranol] | 6.49 | 95.5% | 45.4% | 20.0% | 11.4% | Soluble | Sparingly Soluble
